Measurements published in the supplement of paper PMC10307832.

Columns and labels:
Experiment in all cases: relative viability (nuclei count vs DMSO), 5 days (fraction); higher = more cells survive
IMD-0354 + Olaparib = compound: O=C(Nc1cc(C(F)(F)F)cc(C(F)(F)F)c1)c1cc(Cl)ccc1O [IMD-0354] + O=C(c1cc(Cc2n[nH]c(=O)c3ccccc23)ccc1F)N1CCN(C(=O)C2CC2)CC1 [Olaparib] (partner 8 µM)
Summary of the method: (§1)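 A single step with final 0.05% Triton X-100, 1% formaldehyde and 1 ug/ml Hoechst fixed the cells and stained nuclei 5 days after treatment. Lung cancer cell lines in 1536-well plates had been treated by pin tool the day after seeding with one drug alone or a fixed anchor-drug dose plus five library-drug doses (not always all listed) in √10 steps, and nuclei were counted on 4× images. Relative viability is the ratio of nuclei in treated wells to nuclei in vehicle wells, taken as the median of duplicate plates.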

IMD-0354 + Crizotinib = compound: O=C(Nc1cc(C(F)(F)F)cc(C(F)(F)F)c1)c1cc(Cl)ccc1O [IMD-0354] + C[C@@H](Oc1cc(-c2cnn(C3CCNCC3)c2)cnc1N)c1c(Cl)ccc(F)c1Cl [Crizotinib] (partner 1 µM)
Summary of the method: as §1

CX-5461 + Lapatinib = compound: Cc1cnc(CNC(=O)c2c(=O)c3ccc(N4CCCN(C)CC4)nc3n3c2sc2ccccc23)cn1 [CX-5461] + CS(=O)(=O)CCNCc1ccc(-c2ccc3ncnc(Nc4ccc(OCc5cccc(F)c5)c(Cl)c4)c3c2)o1 [Lapatinib] (partner 2 µM)
Summary of the method: as §1

CX-5461 + Dasatinib = compound: Cc1cnc(CNC(=O)c2c(=O)c3ccc(N4CCCN(C)CC4)nc3n3c2sc2ccccc23)cn1 [CX-5461] + Cc1nc(Nc2ncc(C(=O)Nc3c(C)cccc3Cl)s2)cc(N2CCN(CCO)CC2)n1 [Dasatinib] (partner 0.075 µM)
Summary of the method: as §1

Cell Line | relative viability (IMD-0354 + Olaparib; first compound 0.04 µM) | relative viability (IMD-0354 + Olaparib; first compound 0.1265 µM) | relative viability (IMD-0354 + Olaparib; first compound 0.4 µM) | relative viability (IMD-0354 + Olaparib; first compound 1.265 µM) | relative viability (IMD-0354 + Olaparib; first compound 4 µM) | relative viability (IMD-0354 + Crizotinib; first compound 0.04 µM) | relative viability (IMD-0354 + Crizotinib; first compound 0.1265 µM) | relative viability (IMD-0354 + Crizotinib; first compound 0.4 µM) | relative viability (IMD-0354 + Crizotinib; first compound 1.265 µM) | relative viability (IMD-0354 + Crizotinib; first compound 4 µM) | relative viability (CX-5461 + Lapatinib; first compound 0.01 µM) | relative viability (CX-5461 + Lapatinib; first compound 0.03162 µM) | relative viability (CX-5461 + Lapatinib; first compound 0.1 µM) | relative viability (CX-5461 + Lapatinib; first compound 0.3162 µM) | relative viability (CX-5461 + Lapatinib; first compound 1 µM) | relative viability (CX-5461 + Dasatinib; first compound 0.01 µM) | relative viability (CX-5461 + Dasatinib; first compound 0.03162 µM) | relative viability (CX-5461 + Dasatinib; first compound 0.1 µM) | relative viability (CX-5461 + Dasatinib; first compound 0.3162 µM) | relative viability (CX-5461 + Dasatinib; first compound 1 µM)
NCI-H2347 | 0.606 | 0.64 | 0.49 | 0.377 | 0.265 | 0.752 | 0.654 | 0.62 | 0.395 | 0.365 | 0.941 | 0.931 | 0.963 | 0.524 | 0.778 | 0.336 | 0.295 | 0.4 | 0.333 | 0.328
NCI-H2405 | 0.905 | 0.866 | 0.491 | 0.258 | 0.258 | 0.915 | 0.86 | 0.491 | 0.572 | 0.304 | 1.18 | 1.07 | 1.18 | 0.541 | 0.808 | 0.224 | 0.204 | 0.197 | 0.205 | 0.193
NCI-H3122 | 0.461 | 0.633 | 0.417 | 0.509 | 0.137 | 0.298 | 0.29 | 0.281 | 0.202 | 0.167 | 1.01 | 0.992 | 0.897 | 1 | 0.854 | 0.821 | 0.942 | 0.828 | 0.824 | 0.346
PC-3 [JPC-3] | 1.25 | 1.16 | 0.839 | 0.374 | 0.38 | 1.08 | 1.01 | 0.601 | 0.419 | 0.18 | 0.453 | 0.443 | 0.464 | 0.421 | 0.473 | 0.967 | 1.09 | 1.01 | 1.04 | 0.972
PC-14 | 0.223 | 0.276 | 0.269 | 0.0804 | 0.126 | 0.988 | 0.92 | 0.357 | 0.387 | 0.179 | 0.328 | 0.457 | 0.304 | 0.104 | 0.337 | 0.312 | 0.251 | 0.295 | 0.272 | 0.0972
RERF-LC-KJ | 1.08 | 0.969 | 0.415 | 0.169 | 0.229 | 0.861 | 0.893 | 0.495 | 0.311 | 0.196 | 0.785 | 0.701 | 0.877 | 0.637 | 0.765 | 0.913 | 0.94 | 0.809 | 0.924 | 0.522
SK-LU-1 | 0.481 | 0.395 | 0.325 | 0.265 | 0.205 | 1.19 | 0.682 | 0.501 | 0.28 | 0.312 | 0.948 | 0.837 | 0.852 | 0.96 | 0.535 | 0.178 | 0.159 | 0.142 | – | 0.102
SK-MES-1 | 0.894 | 0.643 | 0.312 | 0.19 | 0.226 | 1.03 | 1.08 | 0.559 | 0.721 | 0.252 | 0.431 | 0.474 | 0.454 | 0.512 | 0.403 | 0.339 | 0.387 | 0.397 | 0.344 | 0.198
SW 1573 | 0.537 | 0.467 | 0.264 | 0.0858 | 0.0862 | 0.819 | 0.763 | 0.408 | 0.268 | 0.115 | 1.2 | 1.26 | 0.989 | 0.691 | 0.546 | 0.528 | 0.396 | 0.302 | 0.502 | 0.17
UMC-11 | 0.368 | 0.332 | 0.278 | 0.182 | 0.178 | 0.701 | 0.578 | 0.432 | 0.263 | 0.267 | 1.07 | 1.01 | 0.855 | 0.454 | 0.269 | 0.446 | 0.519 | 0.364 | 0.39 | 0.246
